pIC50, pKd: −log10 of the molar value. Several values for one entry are separate records, joined by “and”; a condition that tells them apart may be missing. Equal values may be shown once. Read-outs that look alike come from different tables or passages of the source.
What was measured:
LT or CT = details: cited from earlier work
mice [1] = details: mouse, in vivo
C57B1/6 mice [2] = details: mouse, in vivo
mice [3] = details: mouse, in vivo; remark: listed apart in the source
C57B1/6 mice [4] = details: mouse, in vivo; remark: listed apart in the source
mice [5] = details: mouse, in vivo; remark: listed apart in the source
C57B1/6 mice [6] = details: mouse, in vivo; remark: listed apart in the source
Y-1 adrenal cells = type: cell-based
C57B1/6 mice [7] = details: mouse, in vivo; remark: listed apart in the source
C57B1/6 mice [8] = details: mouse, in vivo; remark: listed apart in the source
C57B1/6 mice [9] = details: mouse, in vivo; remark: listed apart in the source
Balb/c mice = details: mouse, in vivo, po
[10] = cited from earlier work
C57B1/6 mice [11] = details: mouse, in vivo; remark: listed apart in the source
C57B1/6 mice [12] = details: mouse, in vivo; remark: listed apart in the source
mice [13] = details: mouse, in vivo; remark: listed apart in the source

O=[N+]([O-])c1cccc(OC2OC(CO)C(O)C(O)C2O)c1 (stereo not drawn) [m-nitrophenyl α-galactoside]
pIC50 (LT or CT): 3.15 to 3.22

Escherichia coli heat-labile enterotoxin [LT]
inflammatory response after IM injection (mice [1]): swelling of the thigh muscle
inflammatory response after SC injection (mice [1]; sc): formation of a large nodule
Anti-OVA titers GMT (C57B1/6 mice [2]): 51,000
anti-LT IgG titers GMT (C57B1/6 mice [2]): 30,000
fold increase of Anti-OVA titers (C57B1/6 mice [2]): 37 fold
times more IFNγ and IL4 producing lymphocytes compared to TT alone (mice [3]): 10 times
anti-OVA antibody titers GMT (C57B1/6 mice [4]): 32,000
examination of the injection sites (mice [5]): developed edema and inflammation at the site of injection
Flu A IgG, Assay values (Elisa Units) Individual Mice (C57B1/6 mice [6]): 150 Elisa Units and 102 Elisa Units and 47 Elisa Units and 45 Elisa Units and 642 Elisa Units and 15498 Elisa Units and 3137 Elisa Units and 6852 Elisa Units and 18563 Elisa Units and 28151 Elisa Units
rounding of cultured cells (Y-1 adrenal cells): 70-100%
percentage of rounded cells (Y-1 adrenal cells; 0.05 ng/ml, 6-8 h): −−− (key: +++ 70-100% rounded cells; ++ 50-75%; + 25-50%; −−− <25%)
percentage of rounded cells (Y-1 adrenal cells; 0.1 ng/ml, 6-8 h): −−− (key: +++ 70-100% rounded cells; ++ 50-75%; + 25-50%; −−− <25%)
percentage of rounded cells (Y-1 adrenal cells; 0.2 ng/ml, 6-8 h): + (key: +++ 70-100% rounded cells; ++ 50-75%; + 25-50%; −−− <25%)
percentage of rounded cells (Y-1 adrenal cells; 0.4 ng/ml, 6-8 h): ++ (key: +++ 70-100% rounded cells; ++ 50-75%; + 25-50%; −−− <25%)
percentage of rounded cells (Y-1 adrenal cells; 0.8 ng/ml, 6-8 h): +++ (key: +++ 70-100% rounded cells; ++ 50-75%; + 25-50%; −−− <25%)
percentage of rounded cells (Y-1 adrenal cells; 1.6 ng/ml, 6-8 h): +++ (key: +++ 70-100% rounded cells; ++ 50-75%; + 25-50%; −−− <25%)
percentage of rounded cells (Y-1 adrenal cells; 3.1 ng/ml, 6-8 h): +++ (key: +++ 70-100% rounded cells; ++ 50-75%; + 25-50%; −−− <25%)
percentage of rounded cells (Y-1 adrenal cells; 6.3 ng/ml, 6-8 h): +++ (key: +++ 70-100% rounded cells; ++ 50-75%; + 25-50%; −−− <25%)
percentage of rounded cells (Y-1 adrenal cells; 12.5 ng/ml, 6-8 h): +++ (key: +++ 70-100% rounded cells; ++ 50-75%; + 25-50%; −−− <25%)
percentage of rounded cells (Y-1 adrenal cells; 25 ng/ml, 6-8 h): +++ (key: +++ 70-100% rounded cells; ++ 50-75%; + 25-50%; −−− <25%)
percentage of rounded cells (Y-1 adrenal cells; 50 ng/ml, 6-8 h): +++ (key: +++ 70-100% rounded cells; ++ 50-75%; + 25-50%; −−− <25%)
percentage of rounded cells (Y-1 adrenal cells; 100 ng/ml, 6-8 h at 37° C.): +++ (key: +++ 70-100% rounded cells; ++ 50-75%; + 25-50%; −−− <25%)
lymph node cell response to re-stimulation with OVA or LT (C57B1/6 mice [7]): did respond to in vitro re-stimulation with OVA or LT by producing IFN-γ and IL-4
spleen cell IFN-γ response to re-stimulation (C57B1/6 mice [7]): did respond to re-stimulation by producing IFN-γ
TT IgG, Assay values (Elisa Units) Individual Mice (C57B1/6 mice [8]): 188314 Elisa Units and 222731 Elisa Units and 178753 Elisa Units and 88333 Elisa Units and 192934 Elisa Units and 201494 Elisa Units and 169482 Elisa Units and 379919 Elisa Units and 73992 Elisa Units and 615173 Elisa Units and 204102 Elisa Units and 146225 Elisa Units and 183724 Elisa Units and 323948 Elisa Units and 202170 Elisa Units and 185486 Elisa Units and 85832 Elisa Units and 163652 Elisa Units and 208284 Elisa Units and 83436 Elisa Units and 63293 Elisa Units and 50116 Elisa Units and 121818 Elisa Units and 176340 Elisa Units and 114780 Elisa Units and 131805 Elisa Units and 6246 Elisa Units and 11745 Elisa Units and 31797 Elisa Units
anti-TT IgG GMT (C57B1/6 mice [8]): 282,000
fold greater anti-TT IgG titers than the non-adjuvanted group (C57B1/6 mice [8]): 34 fold
immune response to co-administered TT (C57B1/6 mice [8]): significantly enhanced
anti-LT antibody titers GMT (C57B1/6 mice [9]): 196,000
fold increase in G:C compared to the buffer control group (Balb/c mice): 2.4 fold
pKd [10]: 9.15
anti-TT IgG titers GMT (C57B1/6 mice [11]): 150,000
anti-TT titers (C57B1/6 mice [11]): significantly increased
histological examination of injection site (C57B1/6 mice [12]): elicited an inflammatory response that persisted for days
mice with inflammatory response (C57B1/6 mice [12]): 4 of 7
persistence of induration (C57B1/6 mice [12]): greater than 2 weeks
skin nodules (incidence, words) (C57B1/6 mice [12]): did not cause skin nodules in six out of the seven injected mice
skin nodules / inflammatory response after intradermal injection (C57B1/6 mice [12]): caused skin nodules in all mice
toxin-induced inflammation (C57B1/6 mice [12]): completely abolished

O=C(O)[C@H](O)[C@@H](O)[C@H](O)[C@H](O)CO[C@H]1O[C@H](CO)[C@H](O)[C@H](O)[C@H]1O [melibionic acid]
pIC50 (LT or CT): 1.96 to 2.30

cholera toxin [CT]
inflammatory response after IM injection (mice [1]): muscle swelling
TT IgG, Geometric mean (mice [5]): 95419 Elisa Units
fold higher titers than the non-adjuvanted vaccine (mice [5]): 823 fold
fold more active than CT/GM1 (mice [5]): 1.6 to 3 fold
TT IgG, Assay values (Elisa Units) Individual Mice (C57B1/6 mice [8]): 11222 Elisa Units and 14300 Elisa Units and 29533 Elisa Units and 63092 Elisa Units and 125687 Elisa Units
TT IgG, Geometric mean (C57B1/6 mice [8]): 32734 Elisa Units
fold greater antibody titers to TT than the non-adjuvanted vaccine (C57B1/6 mice [8]): 105 fold
TT IgG, Assay values (Elisa Units) Individual Mice (mice [13]): 71077 Elisa Units and 113082 Elisa Units and 75238 Elisa Units and 123721 Elisa Units and 61438 Elisa Units
TT IgG, Geometric mean (mice [13]): 85603 Elisa Units
fold higher antibody titers to TT than the non-adjuvanted vaccine (mice [13]): 426 fold
pKd [10]: 9.22
skin nodules / inflammatory response after intradermal injection (C57B1/6 mice [12]): skin nodules

Nc1ccc(OC2OC(CO)C(O)C(O)C2O)cc1 (stereo not drawn) [p-aminophenyl α-galactoside]
pIC50 (LT or CT): 1.92 to 2.32

Gal-β1,3-GalNAc-β1,4-(NeuAc-α2,3)-Gal-β1,4-Glc-β1,1-ceramide [GM1]
pKd (LT or CT; read-out: affinity): 8.00 to 10.00
Diameter skin nodules, Average Mean ± SD (C57B1/6 mice [12]): 0 cm
Diameter skin nodules, Individual Mice (C57B1/6 mice [12]): 0 cm
skin nodules / inflammatory response after intradermal injection (C57B1/6 mice [12]): not inflammatory
